Reference: patent publication US20030195212A1, “Novel melanocortin receptor agonists and antagonists” (priority 2000, published 2003)

Experiments:
MC1 receptor [1] = biological target: T1, MC1 receptor (Mus musculus, UniProt Q01727); assay: Affinity for the MC1-receptor, displacement of I125-NDP-MSH; assay type: binding; conditions: B16 mouse melanoma cells, I125-NDP-MSH ligand; read-out: Affinity for MC-receptors Ki MC1
T1 construct: B16 mouse melanoma cells were used, which endogenously express the (mouse) MC1 receptor; endogenous in cells; host or cells: B16 mouse melanoma cells
Procedure: Test 1. Affinity for the MC1-Receptor
The binding assay was carried out essentially as described by Lunec et al Melanoma Res 1992; 2; 5-12 using I^125α-NDP-MSH as ligand.
(§1) Essentially, the affinity of the compounds to the different receptors were determined using either insect cells (Sf9) or COS cells, which were transfected with recombinant human MC3, MC4 or MC5 receptors. For the determination of the affinity to the MC1 receptor, B16 mouse melanoma cells were used, which endogenously express the (mouse) MC1 receptor.
(§2) The compounds were tested at different concentrations for their ability to displace I^125-labelled NDP-MSH from the respective receptor. Incubation was performed in 96-well plates using 50,000 cells/well (Sf9 or COS cells) up to 200,000 cells/well (mouse melanoma cells).
(§3) The test compound or standard (NDP-MSH) was added in an appropriate concentration (generally between 10^−4 M and 10^−12 M) together with labelled tracer (approx. 50,000 cpm/well) and incubation was performed for 2 hours (at room temperature for Sf 9 cells and at +37° C. for COS cells and mouse melanoma cells).
(§4) After the incubation, the cells were washed twice to get rid of excess tracer and compound, and the cells were lysed with 0.1M NaOH. The lysate was counted in a gamma-counter, binding was calculated and the affinity then determined.

human MC3 receptor [2] = biological target: T2, human MC3 receptor (Homo sapiens, UniProt P41968); assay: Affinity for the MC3-receptor, displacement of I125-NDP-MSH; assay type: binding; conditions: Sf9 or COS cells transfected with human MC3, I125-NDP-MSH ligand; for Ki: read-out: Affinity for MC-receptors Ki MC3
T2 construct: expressed in transfected cells; host or cells: Sf9 insect cells or COS cells
Procedure: (§5) Test 2. Affinity for the MC3-Receptors, the MC4-Receptors and the MC5-Receptors
(§6) The binding assays were carried out essentially as described by Szardenings et al., J. Biol. Chem. 1997; 272; 27943-27948 and Schiöth et al., FEBS Lett. 1997; 410; 223-228 using I^125-NDP-α-MSH as ligand.
as §1, §2, §3, §4

human MC4 receptor [3] = biological target: T3, human MC4 receptor (Homo sapiens, UniProt P32245); assay: Affinity for the MC4-receptor, displacement of I125-NDP-MSH; assay type: binding; conditions: Sf9 or COS cells transfected with human MC4, I125-NDP-MSH ligand; read-out: Affinity for MC-receptors Ki MC4
T3 construct: expressed in transfected cells; host or cells: Sf9 insect cells or COS cells
Procedure: as §5, §6, §1, §2, §3, §4

human MC5 receptor [4] = biological target: T4, human MC5 receptor (Homo sapiens, UniProt P33032); assay: Affinity for the MC5-receptor, displacement of I125-NDP-MSH; assay type: binding; conditions: Sf9 or COS cells transfected with human MC5, I125-NDP-MSH ligand; read-out: Affinity for MC-receptors Ki MC5
T4 construct: expressed in transfected cells; host or cells: Sf9 insect cells or COS cells
Procedure: as §5, §6, §1, §2, §3, §4

MC1 receptor [5] = biological target: T1, MC1 receptor; assay: cAMP assay, MC1 receptor (mouse melanoma B16 cells); assay type: cell-based; conditions: 20 minutes at +37° C.
Procedure: (§7) Test 3. cAMP Assay p The stimulation of cAMP was carried out essentially as described by Schiöth et al., Br. J. Pharmacol. 1998; 124; 75-82.
(§8) Essentially, the effects of the compounds were tested […] for their ability to stimulate the production of cAMP. The cells used were the same ones that were used for the binding assays (see above), i.e. for the MC1 receptor mouse melanoma B16 cells were used and for the MC3, MC4 and MC5 receptors, Sf9 or COS cells, transfected with the respective human receptors.
(§9) Cyclic AMP was stimulated by the addition of the compounds at different concentrations in the presence of a phosphodiesterase inhibitor, during a period of 20 minutes at +37° C. cAMP was extracted with PCA, neutralised with KOH and the mixture was then centrifuged.
(§10) The concentration of cAMP was determined using a binding assay comprising binding protein (from bovine adrenals). Tritiated cAMP, used as tracer, and extracts (from above) in different dilutions were incubated at +4° C. for 120-150 minutes. The cAMP in the unknown samples displaced the labelled cAMP from binding to the binding protein. The binding protein-cAMP/tracer complex was harvested using a filter technique and the filters were counted using a beta-counter. The concentrations of cAMP in the unknown extracts were calculated using a standard curve of known concentrations.

human MC4 receptor [6] = biological target: T3, human MC4 receptor; assay: cAMP assay, MC4 receptor (transfected Sf9 or COS cells); assay type: cell-based; conditions: 20 minutes at +37° C.
Procedure: as §7, §8, §9, §10

human MC5 receptor [7] = biological target: T4, human MC5 receptor; assay: cAMP assay, MC5 receptor (transfected Sf9 or COS cells); assay type: cell-based; conditions: 20 minutes at +37° C.
Procedure: as §7, §8, §9, §10

human MC3 receptor [8] = biological target: T2, human MC3 receptor; assay: cAMP assay, MC3 receptor (transfected Sf9 or COS cells); assay type: cell-based; conditions: 20 minutes at +37° C.
Procedure: as §7, §8, §9, §10

Female BALB/c mice = assay: Anti-inflammatory effects: total number of white blood cells in DNFB model; assay type: in vivo, mouse; conditions: i.p., 0.05-0.75 mg/kg, blood collected 24 hours after last challenge
Procedure: Anti-Inflammatory Effects
Female BALB/c mice (weight 20-22 g) were sensitized by treatment of the shaved abdomen with 30 μl of 0.5% 2,4-dinitrofluorobenzene (DNFB). After 4 days they were challenged with 10 μl of 0.3% DNFB to the paw. The unchallenged mice paws served as a control. Twenty-four hours after the last challenge, the difference in paws weight were determined as an indicator of the inflammation (paw oedema).
Mice were treated as the control but were additionally injected i.p. with various doses (0.05, 0.15 or 0.25, 0.375, 0.5 and 0.75 mg/kg) of each compounds two hours before sensitization (day 0) and the same dose was administered repeatedly after sensitization during four consecutive days. The paw edema inhibition as described above. Groups containing at least 10 mice each were used for all experiments.
Blood analysis was carried out using the QBC® Autoread™ Plus & QBC® Accutube System (Becton Dickinson). In all cases blood samples were collected twenty-four hours after the last challenge.

[9] = system: Sprague-Dawley, male rats; assay: In vivo effects on food intake, nocturnal protocol, icv; set-up: species or system rat
Description: (§11) In Vivo Effects on Food Intake
(§12) Compounds have been tested for their effects on food intake and body weight in rats.
(§13) In order to investigate the agonistic effect, i.e. decrease in food intake, of compounds, the nocturnal protocol was used. Sprague-Dawley, male rats were used, which were cannulated intracerebroventricularly. Stainless steel guide cannulae were placed in the lateral ventricle and fixed in the skull. Animals were acclimatized for a week before the experiments took place. After the experiments were done, the rats were killed and placement of the cannulae were checked.
(§14) Rats were cannulated as described above. They were used without prior starvation, and compounds were administered at 5 pm in a total volume of 5 μl. Doses of Compound 2:4 used were 1, 4 and 10 nmoles. Food intake was measured at 3, 15 and 24 hours after dosing, and body weight was recorded at 24 hours. For comparison, the well known MC4 receptor agonist, Melanotan II (MTII) was used, at a dose of 1 nmole.

[10] = system: Sprague-Dawley, male rats; assay: In vivo effects on body weight gain, nocturnal protocol, icv; set-up: species or system rat; conditions: icv, 1, 4 and 10 nmoles, recorded at 24 hours
Description: as §11, §12, §13, §14

T4 sequence (P33032 whole entry): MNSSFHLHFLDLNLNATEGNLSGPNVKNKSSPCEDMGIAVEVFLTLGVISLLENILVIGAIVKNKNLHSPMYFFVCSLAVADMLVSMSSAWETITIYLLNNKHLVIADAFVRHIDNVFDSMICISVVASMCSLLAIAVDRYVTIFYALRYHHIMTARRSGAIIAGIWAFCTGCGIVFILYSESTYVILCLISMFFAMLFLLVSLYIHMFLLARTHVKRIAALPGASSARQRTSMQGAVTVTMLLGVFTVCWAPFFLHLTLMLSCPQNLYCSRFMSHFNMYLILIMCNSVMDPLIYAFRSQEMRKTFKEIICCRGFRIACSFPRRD
T1 sequence (Q01727 whole entry): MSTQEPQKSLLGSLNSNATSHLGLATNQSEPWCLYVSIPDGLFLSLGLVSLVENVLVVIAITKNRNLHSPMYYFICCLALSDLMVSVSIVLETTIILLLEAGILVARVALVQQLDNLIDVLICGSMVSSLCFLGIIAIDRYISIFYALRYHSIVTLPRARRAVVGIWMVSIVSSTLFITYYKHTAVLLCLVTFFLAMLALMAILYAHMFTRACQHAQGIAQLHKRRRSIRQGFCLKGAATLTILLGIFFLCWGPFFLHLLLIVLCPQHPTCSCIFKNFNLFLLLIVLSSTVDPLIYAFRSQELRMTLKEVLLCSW
T3 sequence (P32245 whole entry): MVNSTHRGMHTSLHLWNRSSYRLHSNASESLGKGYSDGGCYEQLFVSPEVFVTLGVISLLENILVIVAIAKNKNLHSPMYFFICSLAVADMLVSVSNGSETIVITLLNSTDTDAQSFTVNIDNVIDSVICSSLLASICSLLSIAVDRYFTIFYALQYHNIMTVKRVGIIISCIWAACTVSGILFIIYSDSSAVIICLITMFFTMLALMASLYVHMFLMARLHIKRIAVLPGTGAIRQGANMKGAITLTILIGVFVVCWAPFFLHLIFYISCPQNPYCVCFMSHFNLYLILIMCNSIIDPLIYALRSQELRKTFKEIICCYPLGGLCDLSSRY
T2 sequence (P41968 whole entry): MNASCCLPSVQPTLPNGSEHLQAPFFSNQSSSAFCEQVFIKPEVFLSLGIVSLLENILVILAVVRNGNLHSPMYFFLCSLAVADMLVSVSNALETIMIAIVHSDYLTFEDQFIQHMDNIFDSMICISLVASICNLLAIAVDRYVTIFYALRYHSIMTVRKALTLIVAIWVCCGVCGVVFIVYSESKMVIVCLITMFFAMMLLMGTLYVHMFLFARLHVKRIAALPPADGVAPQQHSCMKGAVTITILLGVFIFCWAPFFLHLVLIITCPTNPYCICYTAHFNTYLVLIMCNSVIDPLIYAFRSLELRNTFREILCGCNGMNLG

SMILES	Ki (MC1 receptor [1])	Ki (human MC3 receptor [2])	Ki (human MC4 receptor [3])	Ki (human MC5 receptor [4])	Influence on cAMP MC1c (MC1 receptor [5])	Influence on cAMP MC4c (human MC4 receptor [6])	Influence on cAMP MC5c (human MC5 receptor [7])	Affinity for MC-receptors Ki MC3 (human MC3 receptor [2])	Influence on cAMP MC3c (human MC3 receptor [8])	white blood cell count (Female BALB/c mice)	effects at the highest dose compared with MTII ([9]; icv, 10 nmoles versus MTII 1 nmole, food intake and body weight gain)	food intake ([9]; icv, 1, 4 and 10 nmoles, measured at 3, 15 and 24 hours after dosing)	body weight gain [10]
NCCCNC(=O)C(Cc1c[nH]c2ccccc12)NC(=O)Cc1cccc2ccccc12 (centres unmarked) [1:6, N-(3-Amino-propyl)-3-(1H-indol-3-yl)-2-(2-naphthalen-1-yl-acetylamino)-propionamide]	12.7 µM	37.1 µM	25.2 µM	30.8 µM	375 percentage of the baseline	99 percentage of the baseline	76 percentage of the baseline	–	–	–	–	–	–
CCn1c2ccccc2c2cc(NC(=O)C(Cc3c[nH]c4ccccc34)NC(=O)CCCNC(=N)N)ccc21 (centres unmarked) [2:6, N-[1-(9-Ethyl-9H-carbazol-3-ylcarbamoyl)-2-(1H-indol-3-yl)-ethyl]-4-guanidino-butyramide]	2.7 µM	–	20.8 µM	17.9 µM	354 percentage of the baseline	61 percentage of the baseline	117 percentage of the baseline	nb	–	–	–	–	–
CCn1c2ccccc2c2cc(NC(=O)C(Cc3c[nH]c4ccccc34)NC(=O)CCN)ccc21 (centres unmarked) [2:14, 2-(3-Amino-propionylamino)-N-(9-ethyl-9H-carbazol-3-yl)-3-(1H-indol-3-yl)-propionamide]	–	–	–	–	162 percentage of the baseline	237 percentage of the baseline	164 percentage of the baseline	–	116 percentage of the baseline	–	–	–	–
N=C(N)NCCCCN(Cc1ccccc1)C(=O)C(Cc1c[nH]c2ccccc12)NC(=O)CCCc1ccccc1 (centres unmarked) [Compound 1:15, N-[1-[Benzyl-(4-guanidino-butyl)-carbamoyl]-2-(1H-indol-3-yl)-ethyl]-4-phenyl-butyramide]	1.3 µM	23.5 µM	5.6 µM	35.6 µM	–	–	–	–	–	clearly dose dependent	–	–	–
N=C(N)NCCCCN(Cc1ccccc1)C(=O)C(Cc1c[nH]c2ccccc12)NC(=O)Cc1ccc2ccccc2c1 (centres unmarked) [Compound 1:17, N-Benzyl-N-(4-guanidino-butyl)-3-(1H-indol-3-yl)-2-(2-naphthalen-2-yl-acetylamino)-propionamide]	0.6 µM	35.3 µM	3.1 µM	43.7 µM	–	–	–	–	–	clearly dose dependent	–	–	–
N=C(N)NCCCC(=O)NC(Cc1c[nH]c2ccccc12)C(=O)NCCc1c[nH]c2ccccc12 (centres unmarked) [Compound 2:4, 4-Guanidino-N-{2-(1H-indol-3-yl)-1-[2-(1H-indol-3-yl)-ethylcarbamoyl]-ethyl}-butyramide]	–	–	–	–	–	–	–	–	–	–	in the same range as that observed with MTII	the intermediate and the highest dose is significantly different from vehicle treated animals	dose dependent and significantly different from vehicle treated animals at the highest dose tested
CCn1c2ccccc2c2cc(NC(=O)C(Cc3c[nH]c4ccccc34)NC(=O)CCCN)ccc21 (centres unmarked) [Compound 2:7, 4-Amino-N-[1-(9-ethyl-9H-carbazol-3-ylcarbamoyl)-2-(1H-indol-3-yI)-ethyl]-butyramide]	2.6 µM	–	18.1 µM	25.1 µM	315 percentage of the baseline	79 percentage of the baseline	154 percentage of the baseline	nb	–	–	–	–	–
